Reference: article doi:10.1101/2024.08.19.608619, “Discovery of potent SARS-CoV-2 nsp3 macrodomain inhibitors uncovers lack of translation to cellular antiviral response” (bioRxiv, 2024)
Read-outs that look alike come from different tables or passages of the source.

What was measured:
SARS-CoV-2 nsp3-mac1 [1] = biological target: T1, SARS-CoV-2 nsp3-mac1 (Severe acute respiratory syndrome coronavirus 2, UniProt P0DTD1); assay: biochemical; format: biochemical; settings: SARS-CoV-2 nsp3 macrodomain TR-FRET single point, n=2
SARS-CoV-2 nsp3-mac1 [2] = biological target: T1, SARS-CoV-2 nsp3-mac1; assay: biochemical; design: SARS-CoV-2 nsp3 macrodomain TR-FRET single point, per cent inhibition, n=2
[3] = read-out: perc_inhibition_mean, batch_name=ASAP-0000321-001
[4] = read-out: perc_inhibition_mean, batch_name=ASAP-0000322-001
[5] = read-out: perc_inhibition_mean, batch_name=ASAP-0000323-001
[6] = read-out: perc_inhibition_mean, batch_name=ASAP-0000324-001
[7] = read-out: perc_inhibition_mean, batch_name=ASAP-0000325-001
[8] = read-out: perc_inhibition_mean, batch_name=ASAP-0000326-001
[9] = read-out: perc_inhibition_mean, batch_name=ASAP-0000327-001
[10] = read-out: perc_inhibition_mean, batch_name=ASAP-0000328-001
[11] = read-out: perc_inhibition_mean, batch_name=ASAP-0000329-001
[12] = read-out: perc_inhibition_mean, batch_name=ASAP-0000330-001
[13] = read-out: perc_inhibition_mean, batch_name=ASAP-0000331-001
[14] = read-out: perc_inhibition_mean, batch_name=ASAP-0000332-001
[15] = read-out: perc_inhibition_mean, batch_name=ASAP-0000333-001
[16] = read-out: perc_inhibition_mean, batch_name=ASAP-0000334-001
[17] = read-out: perc_inhibition_mean, batch_name=ASAP-0000335-001
[18] = read-out: perc_inhibition_mean, batch_name=ASAP-0000336-001
[19] = read-out: perc_inhibition_mean, batch_name=ASAP-0000337-001
[20] = read-out: perc_inhibition_mean, batch_name=ASAP-0000338-001

| SMILES | perc_inhibition_mean (SARS-CoV-2 nsp3-mac1 [1]; concentration 49.75 uM) | perc_inhibition_mean (SARS-CoV-2 nsp3-mac1 [1]; concentration 99.5 uM) | other results |
| --- | --- | --- | --- |
| Cn1c(C(=O)N(CCC(=O)N2CCNCC2)Cc2cccc(Cl)c2)cnc1O [ASAP-0000321] | -4.765% | -2.757% | inhibition at 49.75 µM (SARS-CoV-2 nsp3-mac1 [2]; [3]): -4.76%; inhibition at 99.5 µM (SARS-CoV-2 nsp3-mac1 [2]; [3]): -2.76% |
| CC(C)n1nccc1NC(=O)c1ccc(NC(=O)Nc2ccccc2)cc1 [ASAP-0000322] | -1.998% | -0.924% | inhibition at 49.75 µM (SARS-CoV-2 nsp3-mac1 [2]; [4]): -2%; inhibition at 99.5 µM (SARS-CoV-2 nsp3-mac1 [2]; [4]): -0.924% |
| O=C(CCN(Cc1cccc(Cl)c1)C(=O)[C@@H]1CNCC12CC2)N1CCNCC1 [ASAP-0000323] | 4.205% | 2.382% | inhibition at 49.75 µM (SARS-CoV-2 nsp3-mac1 [2]; [5]): 4.21%; inhibition at 99.5 µM (SARS-CoV-2 nsp3-mac1 [2]; [5]): 2.38% |
| CO[C@@H]1CCCN(C(=O)c2cnn3ccc(C4CCN(C(=O)c5ccccc5)CC4)cc23)C1 [ASAP-0000324] | 22.606% | 39.842% | inhibition at 49.75 µM (SARS-CoV-2 nsp3-mac1 [2]; [6]): 22.6%; inhibition at 99.5 µM (SARS-CoV-2 nsp3-mac1 [2]; [6]): 39.8% |
| N[C@@H]1CCC[C@@H](C(=O)N(CCC(=O)N2CCNCC2)Cc2cccc(Cl)c2)C1 [ASAP-0000325] | -0.755% | -1.468% | inhibition at 49.75 µM (SARS-CoV-2 nsp3-mac1 [2]; [7]): -0.755%; inhibition at 99.5 µM (SARS-CoV-2 nsp3-mac1 [2]; [7]): -1.47% |
| O=C(CCN(Cc1cccc(Cl)c1)C(=O)C1(O)CCCC1)N1CCNCC1 [ASAP-0000326] | -1.213% | -1.781% | inhibition at 49.75 µM (SARS-CoV-2 nsp3-mac1 [2]; [8]): -1.21%; inhibition at 99.5 µM (SARS-CoV-2 nsp3-mac1 [2]; [8]): -1.78% |
| Cc1nccc(C(=O)N2CCC(c3ccn4ncc(C(=O)N5CCCCC5)c4c3)CC2)n1 [ASAP-0000327] | 16.537% | 27.369% | inhibition at 49.75 µM (SARS-CoV-2 nsp3-mac1 [2]; [9]): 16.5%; inhibition at 99.5 µM (SARS-CoV-2 nsp3-mac1 [2]; [9]): 27.4% |
| O=C(c1cn2ncccc2n1)N1CCC(c2ccn3ncc(C(=O)N4CCCCC4)c3c2)CC1 [ASAP-0000328] | 30.741% | 53.75% | inhibition at 49.75 µM (SARS-CoV-2 nsp3-mac1 [2]; [10]): 30.7%; inhibition at 99.5 µM (SARS-CoV-2 nsp3-mac1 [2]; [10]): 53.8% |
| O=C(c1cc(O)ccn1)N1CCC(c2ccn3ncc(C(=O)N4CCCCC4)c3c2)CC1 [ASAP-0000329] | 17.623% | 32.165% | inhibition at 49.75 µM (SARS-CoV-2 nsp3-mac1 [2]; [11]): 17.6%; inhibition at 99.5 µM (SARS-CoV-2 nsp3-mac1 [2]; [11]): 32.2% |
| Cc1n[nH]c(C)c1C(=O)N1CCC(c2ccn3ncc(C(=O)N4CCCCC4)c3c2)CC1 [ASAP-0000330] | 10.806% | 23.296% | inhibition at 49.75 µM (SARS-CoV-2 nsp3-mac1 [2]; [12]): 10.8%; inhibition at 99.5 µM (SARS-CoV-2 nsp3-mac1 [2]; [12]): 23.3% |
| Cn1cnc(C(=O)N(CCC(=O)N2CCNCC2)Cc2cccc(Cl)c2)n1 [ASAP-0000331] | -1.441% | -0.25% | inhibition at 49.75 µM (SARS-CoV-2 nsp3-mac1 [2]; [13]): -1.44%; inhibition at 99.5 µM (SARS-CoV-2 nsp3-mac1 [2]; [13]): -0.25% |
| Cc1cocc1C(=O)N(CCC(=O)N1CCNCC1)Cc1cccc(Cl)c1 [ASAP-0000332] | 1.398% | 0.51% | inhibition at 49.75 µM (SARS-CoV-2 nsp3-mac1 [2]; [14]): 1.4%; inhibition at 99.5 µM (SARS-CoV-2 nsp3-mac1 [2]; [14]): 0.51% |
| Cn1nncc1C(=O)N(CCC(=O)N1CCNCC1)Cc1cccc(Cl)c1 [ASAP-0000333] | 0.447% | -2.15% | inhibition at 49.75 µM (SARS-CoV-2 nsp3-mac1 [2]; [15]): 0.447%; inhibition at 99.5 µM (SARS-CoV-2 nsp3-mac1 [2]; [15]): -2.15% |
| O=C(CCN(Cc1cccc(Cl)c1)C(=O)c1cnon1)N1CCNCC1 [ASAP-0000334] | -2.442% | -1.082% | inhibition at 49.75 µM (SARS-CoV-2 nsp3-mac1 [2]; [16]): -2.44%; inhibition at 99.5 µM (SARS-CoV-2 nsp3-mac1 [2]; [16]): -1.08% |
| O=C(CCN(Cc1cccc(Cl)c1)C(=O)c1ccc(F)cn1)N1CCNCC1 [ASAP-0000335] | 6.758% | 6.737% | inhibition at 49.75 µM (SARS-CoV-2 nsp3-mac1 [2]; [17]): 6.76%; inhibition at 99.5 µM (SARS-CoV-2 nsp3-mac1 [2]; [17]): 6.74% |
| Nc1c(O)cccc1C(=O)N(CCC(=O)N1CCNCC1)Cc1cccc(Cl)c1 [ASAP-0000336] | -1.238% | 1.457% | inhibition at 49.75 µM (SARS-CoV-2 nsp3-mac1 [2]; [18]): -1.24%; inhibition at 99.5 µM (SARS-CoV-2 nsp3-mac1 [2]; [18]): 1.46% |
| O=C(NCC1(O)CCOCC1)c1cnn2ccc(C3CCN(C(=O)c4ccccc4)CC3)cc12 [ASAP-0000337] | -3.965% | -1.103% | inhibition at 49.75 µM (SARS-CoV-2 nsp3-mac1 [2]; [19]): -3.96%; inhibition at 99.5 µM (SARS-CoV-2 nsp3-mac1 [2]; [19]): -1.1% |
| CNC[C@@H]1CCCN1C(=O)c1cnn2ccc(C3CCN(C(=O)c4ccccc4)CC3)cc12 [ASAP-0000338] | -1.474% | -2.203% | inhibition at 49.75 µM (SARS-CoV-2 nsp3-mac1 [2]; [20]): -1.47%; inhibition at 99.5 µM (SARS-CoV-2 nsp3-mac1 [2]; [20]): -2.2% |
